Experimental data from US6846492B2, “Use of phenylethylamine derivatives for the antimicrobial treatment of surfaces” (Ciba Specialty Chemicals Corporation, priority 2000, dated 2005).

Columns and labels:
Format in all cases: cell-based
[1] = system: Escherichia coli NCTC 8196 (= EC); assay: MIC determination in microtiter plates, Escherichia coli; conditions: Tables 2a/2b, 48 hours at 37° C., ≦20% growth, optical density 620 nm, some approximate values
Procedure: (§1) Determination of the Minimum Inhibitory Concentration (MIC Value) in Microtiter Plates
(§2) Casein/soybean flour peptone bouillon for the preparation of pre-cultures of the test bacteria and yeast.
(§3) Mycological slant agar for the pre-culture of moulds
(§4) The test substances are pre-dissolved in dimethyl sulfoxide (DMSO) and tested in a dilution series of 1:2.
(§5) Bacteria and yeast are cultured overnight in CASO bouillon, the mould is cultured overnight on mycological slant agar, and washed off with 10 ml of 0.85% sodium chloride solution (+0.1% TritonX-100).
(§6) All the test organisms are adjusted to an organism count of 1−5×10^6 CFU/ml using 0.85% sodium chloride solution.
(§7) The test substances are pre-pipetted into microtiter plates in an amount of 8 μl per well.
(§8) Pre-diluted organism suspensions are diluted 1:100 in CASO bouillon (bacteria and yeast) or Sabouraud 2% glucose bouillon (mould) and are added in an amount of 192 μl per well to the test substances.
(§9) The test batches are incubated for 48 hours at 37° C. (bacteria and yeast) or for 5 days at 28° C. (mould).
(§10) After incubation, the growth is evaluated by reference to the turbidity of the test batches (optical density) at 620 nm in a microplate reader.
(§11) One microtiter plate is used for each test organism and substance concentration. All the substances are tested in duplicate.

[2] = system: Pseudomonas aeruginosa CIP A-22 (= PA); assay: MIC determination in microtiter plates, Pseudomonas aeruginosa; conditions: Tables 2a/2b, 48 hours at 37° C., ≦20% growth, optical density 620 nm, some approximate values
Procedure: as §1, §2, §3, §4, §5, §6, §7, §8, §9, §10, §11

[3] = system: Staphylococcus hominis DMS 20328 (= SH); assay: MIC determination in microtiter plates, Staphylococcus hominis; conditions: Tables 2a/2b, 48 hours at 37° C., ≦20% growth, optical density 620 nm, tested at 120, 60, 30, 15, 7.5 and 3.5 ppm, some approximate
Procedure: as §1, §2, §3, §4, §5, §6, §7, §8, §9, §10, §11

[4] = system: Candida albicans ATCC 10231 (= CA); assay: MIC determination in microtiter plates, Candida albicans; conditions: Tables 2a/2b, 48 hours at 37° C., ≦20% growth, optical density 620 nm, some approximate values
Procedure: as §1, §2, §3, §4, §5, §6, §7, §8, §9, §10, §11

[5] = system: Aspergillus niger ATCC 6275 (= AN); assay: MIC determination in microtiter plates, Aspergillus niger; conditions: Tables 2a/2b, 5 days at 28° C., ≦20% growth, optical density 620 nm, some approximate values
Procedure: as §1, §2, §3, §4, §5, §6, §7, §8, §9, §10, §11

Compound | MIC [ppm] EC [1] [ppm] | MIC [ppm] PA [2] [ppm] | MIC [ppm] SH [3] [ppm] | MIC [ppm] CA [4] [ppm] | MIC [ppm] AN [5] [ppm]
NCCc1ccc(OCc2ccccc2)c(OCc2ccccc2)c1 [Compound 19] | 28 | >120 | 28 | 60 | >120
NCCc1cc(OCC(=O)c2ccc(F)cc2)c(OCC(=O)c2ccc(F)cc2)c(OCC(=O)c2ccc(F)cc2)c1 [Compound 99] | 60 | >120 | 60 | >120 | >120
NCCc1cc(OCc2ccc(F)cc2)c(OCc2ccc(F)cc2)c(OCc2ccc(F)cc2)c1 [Compound 68] | 3.75 | >120 | 3.75 | 3.75 | >120
CCCCOc1ccc(CCN)cc1OCCCC [Compound 30] | 120 | >120 | 120 | 120 | >120
NCCc1ccc(OCc2ccc(F)cc2)c(OCc2ccc(F)cc2)c1 [Compound 17] | 24 | >120 | 12 | 60 | >120
CC(C)(C)c1ccc(COc2ccc(CCN)cc2OCc2ccc(C(C)(C)C)cc2)cc1 [Compound 18] | >60 | >120 | 1.9 | 60 | >120
NCCc1ccc(OCc2ccccc2F)c(OCc2ccccc2F)c1 [Compound 15] | 30 | 120 | 30 | 30 | >120
CC(C)OC(=O)COc1cc(CCN)cc(OCC(=O)OC(C)C)c1OCC(=O)OC(C)C [Compound 75] | >120 | >120 | 60 | >120 | >120
NCCc1cc(OC2CCCC2)c(OC2CCCC2)c(OC2CCCC2)c1 [Compound 92] | 15 | >120 | 15 | 60 | 120
NCCc1ccc(OCc2cccc(C(F)(F)F)c2)c(OCc2cccc(C(F)(F)F)c2)c1 [Compound 9] | 3.75 | >120 | 3.75 | 7.5 | >120
COc1cccc(COc2ccc(CCN)cc2OCc2cccc(OC)c2)c1 [Compound 4] | 60 | >120 | 30 | 60 | 7.5
CCOC(=O)CCCCOc1cc(CCN)cc(OCCCCC(=O)OCC)c1OCCCCC(=O)OCC [Compound 79] | >120 | >120 | >120 | >120 | 120
CC(C)OC(=O)COc1ccc(CCN)cc1OCC(=O)OC(C)C [Compound 24] | >120 | >120 | >120 | >120 | 15
CCCOC(=O)COc1cc(CCN)cc(OCC(=O)OCCC)c1OCC(=O)OCCC [Compound 74] | >120 | >120 | >120 | >120 | >120
NCCc1ccc(OCc2cccc(F)c2)c(OCc2cccc(F)c2)c1 [Compound 16] | 7.5 | 120 | 7.5 | 7.5 | >120
CCCOc1cc(CCN)cc(OCCC)c1OCCC [Compound 80] | 120 | >120 | 120 | >120 | 120
C=CCOc1ccc(CCN)cc1OCC=C [Compound 42] | >120 | >120 | >120 | >120 | >120
Cc1cccc(COc2ccc(CCN)cc2OCc2cccc(C)c2)c1 [Compound 6] | 15 | 120 | 7.5 | 7.5 | 120

Compound | MIC [ppm] EC [1] [ppm] | MIC [ppm] PA [2] [ppm] | MIC [ppm] SH [3] [ppm] | MIC [ppm] CA [4] [ppm] | MIC [ppm] AN [5] [ppm]
COC(=O)COc1cc(CCN)cc(OCC(=O)OC)c1OCC(=O)OC [Compound 72] | >120 | >120 | >120 | >120 | >120
CCOC(=O)CCCOc1ccc(CCN)cc1OCCCC(=O)OCC [Compound 27] | >120 | >120 | >120 | >120 | >120
CC(C)(C)OC(=O)COc1ccc(CCN)cc1OCC(=O)OC(C)(C)C [Compound 25] | >120 | >120 | >120 | >120 | 15
C=CCCCOc1ccc(CCN)cc1OCCCC=C [Compound 44] | 60 | >120 | 60 | 60 | >120
CC(C)Oc1cc(CCN)cc(OC(C)C)c1OC(C)C [Compound 82] | >120 | >120 | >120 | >120 | >120
CC(C)CCOc1cc(CCN)cc(OCCC(C)C)c1OCCC(C)C [Compound 84] | 7.5 | >120 | 3.75 | 15 | 15
COC(=O)COc1ccc(CCN)cc1OCC(=O)OC [Compound 21] | >120 | >120 | >120 | >120 | 120
NCCc1cc(OCc2ccccc2)c(OCc2ccccc2)c(OCc2ccccc2)c1 [Compound 70] | 7.5 | >120 | 7.5 | 15 | >120
CC(C)CCOc1ccc(CCN)cc1OCCC(C)C [Compound 33] | 15 | 120 | 30 | 30 | >120
NCCc1cc(OCc2ccccc2F)c(OCc2ccccc2F)c(OCc2ccccc2F)c1 [Compound 66] | 15 | >120 | 15 | 120 | >120
CCCOC(=O)COc1ccc(CCN)cc1OCC(=O)OCCC [Compound 23] | >120 | >120 | >120 | >120 | 15
Cc1ccccc1COc1ccc(CCN)cc1OCc1ccccc1C [Compound 5] | 15 | >120 | 7.5 | 15 | 7.5
NCCc1ccc(OCc2ccccc2C(F)(F)F)c(OCc2ccccc2C(F)(F)F)c1 [Compound 8] | 7.5 | >120 | 7.5 | 15 | >120
Cc1ccc(COc2ccc(CCN)cc2OCc2ccc(C)cc2)cc1 [Compound 7] | 7.5 | 120 | 3.75 | 3.75 | >120
N#Cc1ccccc1COc1ccc(CCN)cc1OCc1ccccc1C#N [Compound 11] | >120 | >120 | 120 | >120 | >120
N#Cc1ccc(COc2ccc(CCN)cc2OCc2ccc(C#N)cc2)cc1 [Compound 13] | 120 | >120 | 120 | >120 | >120
CC(C)(C)OC(=O)COc1cc(CCN)cc(OCC(=O)OC(C)(C)C)c1OCC(=O)OC(C)(C)C [Compound 76] | >120 | >120 | – | >120 | >120
